From patent US8455240B2, “Use of thermophilic sulphate-reducing archaea for the implementation of a process for the degradation of hydrocarbons” (Institut de Recherche pour le Development (I.R.D.), priority 2005, dated 2013)
Several values for one entry are separate records, joined by “and”; a condition that tells them apart may be missing. Equal values may be shown once. Marks after values point to notes of the source that are not given here.

Assays:
[1] = test system: Archaeoglobus fulgidus; test: Screening for hydrocarbon degradation, A. fulgidus (sulphide production, Cord-Ruwish); type: cell-based
Protocol: (§1) Experimentally, 4 ml of Cord-Ruwish reagent comprising 50 mmol/l of HCl and 5 mmol/l of CuSO4 are added to 0.1 ml of sample. Copper sulphate (CuSO4) by reacting with hydrogen sulphide (H2S), forms a copper sulphide precipitate (CuS) after the reaction: CuSO4+H2S→CuS+H2SO4
(§2) According to this method, the CuS is assayed by spectrophotometry at 480 nm. The readings are carried out against a blank constituted by 4 ml of Cord-Ruwish reagent.
(§3) The study of the hydrocarbon degradation abilities is an experiment which requires a particularly long incubation. Thus, it was carried out in Bellco tubes sealed with thick rubber stoppers.
(§4) For these experiments, tubes containing 10 ml of culture medium without substrate, are 10% inoculated, then the hydrocarbon is introduced by injection through the stopper.
(§5) The hydrocarbons chosen are model molecules belonging to the different classes of hydrocarbons, namely: • hexadecane (CH3(CH2)14CH3, C16), a saturated linear aliphatic hydrocarbon; • hexadecene (CH3(CH2)13CHCH2, C16:1), an unsaturated linear aliphatic hydrocarbon of biogenic origin; • dibenzothiophene (DBT, C12H8S), a sulphur-containing aromatic hydrocarbon.
(§6) The aliphatic hydrocarbons (C16; C16:1) are added to the corresponding tubes, at a rate of 0.04 ml/10 ml of culture medium. The aromatic hydrocarbons (DBT) are solubilized in 2,2,4,4,6,8,8-heptamethylnonane (HMN, C16H34) at a rate of 20 mg/ml of HMN, and 0.75 ml of this solution is injected into 10 ml of culture medium.
(§7) 3 tubes were produced for each test and control. The growth of the strains was monitored indirectly by the production of sulphide.
(§8) A subculture was carried out starting from the preceding experiment on naphthalene, DBT solubilized as previously in HMN, and on HMN alone, for the two strains studied.

[2] = test system: strain L-3; test: Screening for hydrocarbon degradation, strain L-3 (sulphide production, Cord-Ruwish); type: cell-based, Archaeoglobus fulgidus CNCM I-3465 (strain L-3); details: for Count / OD 580 / H2S: choice of the inoculum for the subculture; for H2S: tubes of the screening; for ΔS tf-ti: final minus initial sulphide
Protocol: as §1, §2, §3, §4, §5, §6, §7, §8

[3] = test system: A. fulgidus; test: Subculture on hydrocarbons, A. fulgidus (sulphide production); type: cell-based, Archaeoglobus fulgidus; details: for ΔS tf-ti: final minus initial sulphide
Protocol: as §1, §2, §8
(§9) For this subculture, apart from the tests containing the hydrocarbon (DBT, naphthalene (Naph), […]), and seeded with the previously chosen inoculum, abiotic controls (negative controls) containing the substrate (hydrocarbon) but not inoculated were produced for the purpose of quantifying the sulphide production which could be due to chemical reactions between the different constituents of the medium. In these controls there was no development in the concentration of sulphide over a period of 20 days (Table 4).

[4] = test system: strain L-3; test: Subculture on hydrocarbons, strain L-3 (sulphide production); type: cell-based, Archaeoglobus fulgidus CNCM I-3465 (strain L-3)
Protocol: as §1, §2, §8, §9

[5] = test system: Archaeoglobus fulgidus (collection strain); test: Quantitative study of the degradation of hydrocarbons (DBT, HMN), collection strain; type: cell-based
Protocol: Experiments were carried out in order to establish the stoichiometric equation of the degradation of hydrocarbons in the case of the collection strain only. Thus, the hydrocarbon concentrations were assayed at the initial and final time, like the thiosulphate concentrations. Moreover, the increase in the biomass was followed by the increase in the microbial population based on the most probable number method (MPN).
In order to be able to quantify the hydrocarbons with precision, the thick rubber stoppers were covered with a Teflon film, an inert substance which avoids any loss of the hydrocarbon by absorption or adsorption.
The hydrocarbons were added at a rate of: • for the DBT: 10 mg of DBT dissolved in 0.5 ml of HMN, 0.5 ml of this solution is added to the tests; • for the HMN: 6 μl of HMN/10 ml of culture medium.
The tests prepared are inoculated with the preceding subculture.

[6] = test system: A. fulgidus; test: Complementary experiment: sulphate as electron acceptor instead of thiosulphate; type: cell-based, Archaeoglobus fulgidus
Protocol: A first experiment was carried out with A. fulgidus for the purpose of studying the effect of sulphate as an electron acceptor instead of the thiosulphate used previously. […] This explains that at the bottom of the oceans where sulphate is abundant relative to thiosulphate which is in the minority, the phenomenon of DBT or HMN degradation cannot occur spontaneously.

[7] = test system: Archaeoglobus fulgidus DSM 4304; test: Monitoring of thiosulphate during the degradation of fatty acids by A. fulgidus; type: cell-based; details: end of May 2005; E1/E2 replicates; listed as C5 fatty acid
Protocol: (§10) The thiosulphate and sulphate assays are carried out by ion chromatography.
(§11) The analyses are carried out with a chromatograph (Compact IC 761, Metrohm) equipped with: • A […] ion-exchange column (Metrosep A SUPP 1-250 (6.1005.300)), size 4.6*250 mm; • The eluent used is Na2CO3 at a concentration of 3 mmol/l, at a flow rate of 1 to 2.5 ml/min; ((→the flow rate varies during the analysis)) • A sample processor (Metrohm 838); • A conductimeter; • A computer where the results are recorded, integrated and analyzed by software (761 Compact IC, Metrohm). III.3.2. Operating Method
(§12) The operating conditions are such that the temperature is 20° C. and the pressure is 5 MPa. The samples to be analyzed are filtered. The injection volume is 20 μl. The detection is of conductimetric electrochemical type with chemical suppression allowing elution gradients.
(§13) Monitoring of thiosulphate during the degradation of fatty acids by A. fulgidus and by L-3

[8] = test system: strain L-3; test: Monitoring of thiosulphate during the degradation of fatty acids by L-3; type: cell-based, Archaeoglobus fulgidus CNCM I-3465 (strain L-3); details: time 0 (Feb. 5, 2005); E1/E2 replicates
Protocol: as §10, §11, §12, §13

[9] = test system: Archaeoglobus fulgidus (DSM 4304); test: Degradation of different substrates by A. fulgidus as a function of the electron acceptor; type: cell-based; details: for total H2S: unit from b116
Protocol: as §1, §2
(§14) The analysis and quantification of the metabolites are carried out by HPLC by measuring the disappearance of the substrate and the appearance of different metabolism products.
(§15) The study of the degradation abilities of different substrates of the strain L-3 was based on a comparison with the collection strain, Archaeoglobus fulgidus (DSM 4304). The degradation of the substrates, by the two strains was monitored by a measurement of the cell biomass at 580 nm, a sulphide assay produced according to the Cord-Ruwish method, a study of the degradation metabolites by HPLC, completed by a CO2 assay with a GPC-Katharometer.
(§16) Two series of tests were prepared, one with thiosulphate, the other with sulphate as an electron acceptor.

[10] = test system: strain L-3; test: Degradation of different substrates by the strain L-3 as a function of the electron acceptor; type: cell-based, Archaeoglobus fulgidus CNCM I-3465 (strain L-3); design: total H2S: unit not given here
Protocol: as §1, §2, §14, §15, §16

[11] = test system: strain L-3; test: Sources of carbon and energy used by the strain L-3; type: cell-based, Archaeoglobus fulgidus CNCM I-3465 (strain L-3); details: thiosulphate as electron acceptor; for H2S (480 nm): unit from b126
Protocol: as §1, §2, §14
The study of the growth of the strain L-3 in the presence of different sources of carbon and energy was carried out with thiosulphate as an electron acceptor. The monitoring was carried out by estimation of the cell biomass (OD 580 nm), by assay of the sulphide production (Cord-Ruwish). The results were confirmed by HPLC analyses, and completed in certain cases by a CO2 assay.

[12] = test system: Archaeoglobus fulgidus; test: Degradation kinetics of lactate; type: cell-based
Protocol: as §14
This can be explained by the fact that the strain L-3 can have a substrate degradation metabolism different from that of Archaeoglobus fulgidus.

[13] = choice of the inoculum for the subculture
[14] = thiosulphate as electron acceptor
[15] = thiosulphate or sulphate as electron acceptor

Compound	sulphide production (OD 480) 10 d [1]	sulphide production (OD 480) 45 d [1]	sulphide production (OD 480) 60 d [1]	sulphide production (OD 480) 45 d [2]	sulphide production (OD 480) 70 d [2]	Count [2]	OD 580 [2]	H2S [2]	ΔS tf-ti [2]	sulphide production (OD 480) 8 d [3]	sulphide production (OD 480) 22 d [3]	ΔS tf-ti [3]	sulphide production (OD 480) 0 d [4]	sulphide production (OD 480) 8 d [4]	sulphide production (OD 480) 22 d [4]	sulphide production (OD 480) 45 d [4]	sulphide assay at the end of 75 days [5]	microbial growth with sulphate as electron acceptor [6]	sulphide production (OD 480) 70 d [1]	sulphide production (OD 480) 45 d [3]	other results
c1ccc2c(c1)sc1ccccc12 [DBT, dibenzothiophene]	0.6 mM and 0.8 mM and 0.7 mM	1.1 mM and 1.3 mM	1.1 mM and 1.7 mM and 1.5 mM	1 mM and 1.2 mM and 1.4 mM	0.9 mM and 1.2 mM and 1.4 mM	8.17*10^7 Cells/ml and 6.55*10^7 Cells/ml	0.2284 and 0.3479	0.9 mM and 1.2 mM	0.8 mM and 1.2 mM and 1.5 mM	1.3 mM and 1.1 mM and 1.2 mM	2.1 mM and 1.9 mM	3 mM and 3.1 mM and 3.2 mM	0.3 mM and 0.2 mM	0.6 mM and 0.4 mM	1.1 mM and 1 mM and 0.8 mM	2 mM and 1.1 mM and 1 mM	approximately 9.5 mM	no microbial growth			sulphide production (OD 480) 0 d ([1]; 0 d, aromatics solubilized in HMN): 0.4 mM and 0.3 mM and 0.5 mM; sulphide value in the hydrocarbon screening stage (ΔS45d, Table 1) ([1]; 45 days): ≤ 1 mM; Count [1, 13]: 9.4*10^7 Cells/ml and 8.33*10^7 Cells/ml and 7.22*10^7 Cells/ml; OD 580 [1, 13]: 0.9801 and 1.424 and 0.9189; sulphide production (OD 480) 60 d ([2]; 60 d): 0.6 mM and 0.7 mM and 1.1 mM; sulphide production (OD 480) 0 d ([3]; 0 d): 0.2 mM and 0.1 mM
CC(CC(C)(C)C)CC(C)(C)CC(C)(C)C (centres unmarked) [HMN, 2,2,4,4,6,8,8-heptamethylnonane]	0.8 mM and 1 mM	0.8 mM and 1.1 mM	0.9 mM and 0.7 mM and 1.3 mM	0.7 mM and 0.9 mM	1 mM and 1.4 mM and 1.9 mM	6.08*10^7 Cells/ml	0.5921 and 0.6696	1 mM and 1.4 mM and 2 mM	1 mM and 1.4 mM and 2 mM	0.6 mM and 1 mM and 0.7 mM		1.4 mM and 2.5 mM and 1.5 mM	0.3 mM and 0.2 mM	0.6 mM and 0.5 mM and 0.4 mM	1 mM and 0.9 mM and 0.6 mM		approximately 6 mM	no microbial growth	1.3 mM and 0.9 mM and 1.2 mM	2 mM and 3.5 mM and 2.2 mM	H2S ([1]; choice of the inoculum for the subculture, tubes of the screening): 1.3 mM and 0.9 mM and 1.2 mM; sulphide production during the subculture, on average [3]: 1.8 mM; Sulphide (mM)(480 nM) ([5]; after 7 weeks of incubation, with yeast extract (EL)): 1.3 mM
CCCCC(=O)O [valerate]																					thiosulphate, end of May 2005 [7]: 11.86 mM and 9.39 mM; thiosulphate, time 0 [8]: 13.95* mM
lactate		3.5 mM and 3.8 mM and 4.3 mM	3.3 mM and 3 mM and 3.1 mM	1.8 mM and 3.2 mM and 1.7 mM						0.3 mM	0.3 mM		0.2 mM and 0.1 mM	4.8 mM and 6.1 mM	4.7 mM and 8 mM	3.9 mM			3.9 mM and 3.7 mM	0.2 mM and 0.3 mM	initial OD 580 ([9]; sulphate as electron acceptor): 0.1657 and 0.1456; total H2S ([9]; sulphate as electron acceptor): 7.1 mM and 12.2 mM; final OD 580 [9, 14]: 0.3681 and 0.314; initial OD 580 [9, 14]: 0.1333 and 0.1419; total H2S [9, 14]: 8 mM and 9.3 mM; ability of Archaeoglobus fulgidus to oxidize the substrate [9, 15]: capable of oxidizing; final OD 580 ([10]; sulphate as electron acceptor): 0.3076 and 0.2071; initial OD 580 ([10]; sulphate as electron acceptor): 0.1024 and 0.0888; total H2S ([10]; sulphate as electron acceptor): 2.8 and 1.4; final OD 580 [10, 14]: 0.1027 and 0.1161; initial OD 580 [10, 14]: 0.073 and 0.1029; total H2S [10, 14]: 9.3 and 7.2; ability of the strain L-3 to degrade the substrate [10, 15]: capable of degrading; OD 580 nm Final [11]: 0.1249 and 0.1173; OD 580 nm Initial [11]: 0.0742 and 0.0841; H2S (480 nm) [11]: 5.7 mM and 2.9 mM; H2S (480 nm) ([11]; listed as lactate): 5.7 mM; ΔS tf-ti ([1]; final minus initial sulphide): 3.6 mM and 3.2 mM; lactate degradation at the end of three months [12]: all of the lactate is degraded
